Point of comparison: `CCOC(=O)CNC(=O)N1CCc2cc(S(=O)(=O)N3CCN(c4cccc(Cl)c4)CC3)ccc21`, melting point 150 °C. Against it:
- CCOC(=O)C=Cc1ccc(O)c(C(F)(F)F)c1C(F)(F)F — lower, 138 to 140 °C
- CCCCCCCNC(=O)Nc1ccccc1C(=O)NC1CCN(C(c2ccccc2)c2ccccc2)CC1 — higher, 182 °C
- COc1ccccc1Oc1c(Cl)nc(-c2ccoc2)nc1NS(=O)(=O)c1ccc(C(C)(C)C)cc1 — higher, > 300 °C
- CC(O)(C(=O)Nc1ccc(C(=O)c2ccccc2)cc1F)C(F)(F)F (stereo not drawn) — lower, 138 to 139 °C
- CCC1(C)CCN(c2ccc([N+](=O)[O-])cc2C(=O)c2ccc(Cl)cc2)CC1 — lower, 105 °C
- C#CCOc1cccnc1Cl — lower, 78 to 79 °C
- CCN(CC)C(=O)CCc1nc(-c2ccccc2)nc2ccc(Br)cc12 — lower, 146 °C
- Cc1c(C#N)sc(Br)c1Br — lower, 77 to 80 °C
- O=C(CCc1ccc(F)cc1)c1ccc(C(F)(F)F)cc1 — lower, 66 to 67 °C
- Cc1ccc(Nc2nc3ccccc3c3[nH]c(C4CCCC4)nc23)cc1 — lower, 125 to 126 °C
- N#Cc1ccc(-c2cn(-c3ccc(C#N)cc3)c(SCc3ccccn3)n2)cc1 — higher, 164 to 170 °C
- CN1CCc2ccc(OCCCCN3CCN(c4cccc(Cl)c4Cl)CC3)cc2NC1=O — lower, 139 to 140 °C
- O=CNCC1CCc2ccccc2N(C=O)C1 (stereo not drawn) — lower, 128 °C
- CC(=O)NCCSc1c(Cl)cc([N+](=O)[O-])c(C)c1[N+](=O)[O-] — higher, 152 °C
- CCCCOC(=O)c1ccc(C(=O)c2ccccc2)cc1 — lower, 50 to 60 °C
- Nc1nc(Cc2ccc(OCc3ccccc3)cc2)nc2nc(-c3ccco3)nn12 — higher, 220 to 222 °C
- O=C(OC1CCN(Cc2ccccc2)CC1)c1ccc([N+](=O)[O-])cc1 — lower, 87 to 89 °C
- O=c1oc(-c2cccc(Oc3ccccc3)c2)cc(O)c1SCCc1ccccc1 — lower, 114 to 115 °C
- O=C(O)CCc1ccnc(-c2nc(=O)c3ccccc3s2)c1 — higher, 215 to 216 °C
- CC(S)CNC(=O)OCc1ccc([N+](=O)[O-])cc1 (stereo not drawn) — lower, 54 to 56.5 °C
- CCOc1cc(CCCC2OC(=O)NC2=O)ccc1OCc1nc(-c2ccccc2)oc1C (stereo not drawn) — lower, 129 to 130 °C
- COc1ccc(Sc2[nH]cc(C(=O)O)c2Sc2ccc(OC)cc2)cc1 — higher, 159 to 162 °C
- O=C(CNc1c(C(=O)O)[nH]c2cc(Cl)ccc12)c1ccccc1O — higher, 198 to 200 °C
- CCCc1nc2c(N)nc3ccc(N)cc3c2s1 — higher, 190 to 192 °C
- Cc1cnc(C#N)c(Cl)n1 — lower, 63 to 65 °C
- COC(=O)C(C)Oc1ccccc1S(N)(=O)=O (stereo not drawn) — lower, 140 to 142 °C
- CC(C)COC(=O)C(C#N)=CNCc1ccco1 — lower, 85 to 87 °C
- CCN(CCNC(=O)c1ccc2ccccc2c1)C1CCc2ncsc2C1 (stereo not drawn) — lower, 110 °C
- COc1cnc(N2CCN(c3ccc(-n4c(C)n[nH]c4=O)cc3)CC2)nc1 — higher, > 300 °C
- CC(=O)c1ccc(N)c2c1OCCO2 — lower, 135 to 136 °C
- O=C(NC(CO)c1ccc(-c2ccc(SC(F)F)cc2)cc1)c1c(F)cccc1F (stereo not drawn) — higher, 156 to 157 °C
- CC(=O)c1c(C(C)C)nn2c(C)cccc12 — lower, 67.5 to 68 °C
- CN1CCN(c2ccc(S(=O)(=O)Oc3ccc(F)cc3)cc2)C1=O — higher, 170 to 172 °C
- CC(C)(C(=O)O)N1COC(C(F)F)=C(c2ccccc2)C1=O — not separable, 149 to 151 °C
- NC(=O)c1cc(C(c2c(F)ccc(F)c2F)S(=O)(=O)CCC(F)(F)F)c(Cl)cn1 (stereo not drawn) — higher, 237 to 239 °C
- CC1(Cc2cccc(N)c2)Cc2ccccc2C1=O (stereo not drawn) — lower, 95 to 98 °C
- COc1ccc(-c2nc(-c3ccccc3)nc(-c3ccccc3)n2)c(O)c1 — higher, 211 to 212 °C
- COc1ccccc1Sc1ccccc1C(=O)O — higher, 198 to 200 °C
- CCOC(=O)c1ccc(Cl)nc1NCc1ccc(OC)c(Cl)c1 — lower, 108 to 112 °C
- O=C1CC(=O)c2cc(OCCCOc3ccccc3)ccc21 — lower, 91 to 94 °C
- CC(C)(C)c1cc(CCc2ccccc2NC(=O)N(Cc2ccccc2)C2CCCCCC2)cc(C(C)(C)C)c1O — higher, 183 to 184 °C
- CC(=O)c1ccc(OC(CCCCC(=O)O)c2ccccc2)cc1O (stereo not drawn) — lower, 91 to 93 °C
- COc1cc(N2C(=O)N3CCCCC3C2O)c(F)cc1Cl (stereo not drawn) — higher, 155 to 157 °C
- CCOC(=O)c1cccc(-c2ccc3cc[nH]c3c2)c1 — lower, 120 to 121 °C
- COc1cc(C(C)=NN)ccc1OCCCN1CCC(c2noc3cc(F)ccc23)CC1 — lower, 106 to 108 °C
- CCCCc1nc(Cl)c(C(=O)OC)n1Cc1ccc2oc(-c3ccccc3-c3nnn[nH]3)c(Br)c2c1 — lower, 110 to 112 °C
- COc1ccc(NC(=O)c2ccc(Br)cc2)cc1N1CCN(C(=O)OC(C)(C)C)CC1 — higher, 156 to 158 °C
- CCCCC12CCC3=C(CCc4cc(OC)ccc43)C1=CCC2=O (stereo not drawn) — lower, 53 to 55 °C
- O=C1C=CC(O)(c2cc3ccccc3s2)C=C1 — higher, 185 to 188 °C
- O=C(Cc1ccccc1)Oc1cc(=O)n(-c2ccccc2)c2ncccc12 — higher, 179 to 180 °C
- Cc1ccc(NC(=S)Nc2ncccc2OCc2c(F)cccc2Cl)cc1 — lower, 138 to 140 °C
- CC[C@H](C)OC(=O)COc1ccc(C(=O)[C@H](COC(C)(C)C)NC(=O)c2ccc(C(=N)NC(=O)OC(C)(C)C)cc2)cc1 — lower, 85 to 87 °C
- CC(C)=CC=C(C#N)c1ccccc1 — lower, 66 to 67 °C
- O=C(O)CC(Cc1c[nH]c2ccccc12)C(=O)O (stereo not drawn) — lower, 144 to 145 °C
- Cc1c(C(=O)CN2CCCCC2)c(C)n(C)c1C(=O)c1ccc(Cl)cc1Cl — higher, 177 to 179 °C
- N[C@@H]1C(=O)N(S(=O)(=O)O)[C@H]1C1CCCCC1 (relative stereo) — lower, 135 to 138 °C
- CC(=O)c1c(O)cccc1OCC(C)(O)Oc1ccc(Br)cc1 (stereo not drawn) — lower, 102 to 103 °C
- COc1ccc(N2CCOCC2)cc1NC(=O)c1ncc[nH]1 — higher, 227 to 230 °C
- CCOCc1nc2c(N)nc3cc(-c4cccc(CO)c4)cnc3c2n1CC(C)(C)NS(C)(=O)=O — higher, 173 to 174 °C
- CC(C)(N)c1ccc(-c2nc(Nc3ccc(-n4ccnc4)cc3)ncc2C#N)cc1 — higher, 232 to 233 °C
- Nc1cc(SCc2ccc(F)cc2)nn1-c1c(Cl)cc(C(F)(F)F)cc1Cl — lower, 112 to 113 °C
- CCOC(=O)NNC=Nc1nc(-c2ccc3c(c2)CCCC3)cs1 — lower, 134 to 135 °C
- O=C(COc1ccc([N+](=O)[O-])c(F)c1)NCc1ccccc1 — lower, 128 to 130 °C
- O=S(CBr)c1ccc2c(c1)OCO2 (stereo not drawn) — lower, 88 to 89 °C
- CC(=O)OCCCNc1cc(C)nc2cn[nH]c12 — lower, 115 to 119 °C
- Cc1ccc(C2=CC(O)CN(C)C2)cc1 (stereo not drawn) — lower, 67 to 69 °C
- Cc1c(F)c(N2CCC(N)C2)c(F)c2c1c(=O)c(C(=O)O)cn2C1CC1 (stereo not drawn) — higher, > 300 °C
- CCc1cccc2[nH]c(C(=O)O)cc(=O)c12 — higher, 272 to 273 °C
- C=CCOC(=O)C1=C(C)NC(C)=C(C(=O)OCC=C)C1c1ccc(Br)cc1 — lower, 130 to 131 °C
- CCCCc1nc2cccnc2n1Cc1ccc2c(Cl)c(C(=O)OC)sc2c1 — lower, 127 to 129 °C
- COC(=Cc1ccc(-c2cccc(N(C)C(=O)NC3CCCCC3)c2)cc1)C(=O)O — higher, 192 °C
- c1cncc(-c2ccnc(Nc3cccc(-n4ccnc4)c3)n2)c1 — lower, 95 to 120 °C
- c1ccc(C(c2ccccc2)(c2ccccc2)N2CCc3sccc3C2)cc1 — lower, 95 °C
- CCOC(=O)c1cnc2nn(C)cc2c1NC(C)C — higher, 168 to 170 °C
- Cc1cc(O)c(SCc2ccc(F)cc2)c(=O)o1 — lower, 114 to 118 °C
- O=C(O)c1ccccc1Oc1ccc(C(F)(F)F)cc1NS(=O)(=O)c1cc(C(F)(F)F)cc(C(F)(F)F)c1 — lower, 133 to 134 °C
- COc1ccccc1Oc1cccc2c1C(=O)N(C1CCC(=O)NC1=O)C2=O (stereo not drawn) — higher, 223 to 225 °C
- CC(C)C(NC(=O)c1ccc(C(=O)NCC(=O)OCc2ccccc2)cc1)C(=O)N(CC(=O)NC(C(=O)C(F)(F)F)C(C)C)C1Cc2ccccc2C1 (mixture of isomers) — lower, 64 to 66 °C
- COC(=O)c1cc(=NS(=O)(=O)c2ccc(C)cc2)c2c(Cl)cc(Cl)cc2[nH]1 — higher, 210 to 212 °C
- COc1ccccc1[C@H](C)C(=O)O — lower, 102 °C
- COc1ccc(C2Sc3c(Cl)cccc3N(CCN(C)C)C(=O)C2O)cc1 (stereo not drawn) — lower, 143 to 144 °C
- COC1N=C(c2ccccc2)c2cc(Cl)ccc2-n2nc(C(N)=O)nc21 (stereo not drawn) — higher, 264 to 267 °C
- CN1CC(CCN2CCN(c3ccccn3)CC2)c2nc3ccccc3n2C1=O (stereo not drawn) — higher, 158 to 159 °C
- Fc1ccc(-n2cc(C3CCN(CCN4CCNC4=S)CC3)c3ccc(Cl)cc32)cc1 — higher, 184 to 186 °C
- O=C(NCCc1nc(-c2ccncn2)cc(=O)[nH]1)OCc1ccccc1 — higher, 252 to 254 °C
- O=C(O)COc1c(-c2cccc(Cl)c2)cc(C(=O)NCCCCCCCCn2ccc3cc(F)ccc32)cc1-c1cccc(Cl)c1 — lower, 141 to 144 °C
- Oc1cc2c(cc1O)OCC(c1cccc(C(F)(F)F)c1)C2 (stereo not drawn) — lower, 139 to 141 °C
- CCOC(=O)c1cc(C#N)c(C)nc1NC(C)CC (stereo not drawn) — lower, 55 to 57 °C
- Cc1cccc2c1N(CC(=O)N1CC3CCC(CC3)C1)C(=O)C(NC(=O)Nc1cccc(C(=O)O)c1)N=C2c1ccccc1F (stereo not drawn) — higher, 197 to 204 °C
- CC(C)C[C@H](NC(=O)[C@@H]1CCC(=O)N1C(=O)OCc1ccccc1)C(=O)OC(C)(C)C — lower, 130 to 131 °C
- CC(C)(C)C(=O)Oc1cc(OS(=O)(=O)C(F)(F)F)cc2oc(-c3ccccc3)cc(=O)c12 — lower, 126 to 128 °C
- CCN(CC)c1ccc(-c2cc(-c3ccc(C(=O)O)cc3)ccc2CCCNC(C)(C)C)cc1C(C)(C)C — higher, 273 °C
- C[C@H](C(=O)c1ccccc1F)n1ccn(-c2ccc(OC(F)(F)C(F)F)cc2)c1=O — lower, 78 to 79 °C
- O=C(NC1=NN(c2ccccc2)C(c2ccccc2)C1)C(F)(F)F (stereo not drawn) — higher, 152 to 154 °C
- COCc1noc(-c2ncn3c2c(=O)n(C(C)C)c2ccccc23)n1 — higher, 195 to 196 °C
- N#CC1(Cl)C=C(O)C=NC1 (stereo not drawn) — higher, 182 to 184 °C
- Cc1oc(-c2ccco2)nc1COc1ccc(CO)cc1Br — lower, 141 to 142 °C

From a melting point compilation (Tetko et al.; mined from patent text by program, amines drawn as free bases though some values may be those of a salt)
